Results taken from ChEMBL document CHEMBL1131766, “On the analogy between forskolin and D-glucose” (Bioorg Med Chem Lett, 1999).

What was measured:
Rattus norvegicus [1] = species on record: Rattus norvegicus; test: Compound was tested for inhibition of glucose transport in rat adipocyte; format: functional, organism-based
Rattus norvegicus [2] = species on record: Rattus norvegicus; test: Compound was tested for inhibition of glucose transport in adipocytes plasma membrane vesicles using [H]-forskolin as radioligand; format: functional
Homo sapiens [3] = species on record: Homo sapiens; test: Compound was testd for inhibition of glucose transport human erythrocytes using [H]-forskolin as radioligand; format: functional, organism-based
Homo sapiens [4] = species on record: Homo sapiens; test: Compound was testd for inhibition of glucose transport human platelets using [H]-forskolin as radioligand; format: functional, organism-based

Row | SMILES | Ki (Rattus norvegicus [1]) [µM] | EC50 (Rattus norvegicus [2]) [µM] | EC50 (Homo sapiens [3]) [µM] | EC50 (Homo sapiens [4]) [µM]
1 | CC(=O)O[C@@H]1[C@@H](O)[C@H](O)[C@@H](CO)O[C@@H]1O | 8500 | – | – | –
2 | C=C[C@@]1(C)CC(=O)[C@]2(O)[C@@]3(C)[C@@H](O)CCC(C)(C)[C@@H]3[C@H](O)[C@H](O)[C@@]2(C)O1 | – | 7.1 | – | –
3 | C=C[C@@]1(C)CC(=O)[C@]2(O)[C@@]3(C)[C@@H](O)CCC(C)(C)[C@@H]3[C@H](O)[C@H](OC(C)=O)[C@@]2(C)O1 [COLFORSIN] | – | 0.24 | 0.24 | 0.24
